Reference: PubChem BioAssay AID1963958 (Molecular Pharmacology Branch, DTP, NCI, 2024)

Test system: MDA-MB-231 multicell spheroids, viability
Test: Anticancer human tumor MDA-MB-231 cell line growth inhibition [PI3K];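 note: spheroids exposed to agents for seven days before reading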;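 for viability, T/C: percent of vehicle control luminescence with DMSO treated spheroids as 100%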
Settings: for IC50: curve of first compound; for viability, T/C: stronger effect = lower value
Summary of the method: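 Stroma-containing spheroids: tumor line, pooled-donor HUVEC, hMSC. Treatments: targeted agents with PI3K inhibitors. Dosing: clinically relevant, half-log spacing, 10 microM ceiling without known Cmax. Read-out: cell viability.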

[1] = second compound 0.0316 µM, first compound 0.0316 µM
[2] = second compound 0.0316 µM, first compound 0.1 µM
[3] = second compound 0.1 µM, first compound 0.0316 µM
[4] = second compound 0.1 µM, first compound 0.1 µM
[5] = second compound 0.316 µM, first compound 0.0316 µM
[6] = second compound 0.316 µM, first compound 0.1 µM
[7] = second compound 1 µM, first compound 0.0316 µM
[8] = second compound 1 µM, first compound 0.1 µM
[9] = second compound 3.16 µM, first compound 0.0316 µM
[10] = second compound 3.16 µM, first compound 0.1 µM
[11] = second compound 10 µM, first compound 0.0316 µM
[12] = second compound 10 µM, first compound 0.1 µM
[13] = second compound 0.0316 µM, first compound 0.316 µM
[14] = second compound 0.0316 µM, first compound 1 µM
[15] = second compound 0.0316 µM, first compound 3.16 µM
[16] = second compound 0.0316 µM, first compound 10 µM
[17] = second compound 0.1 µM, first compound 0.316 µM
[18] = second compound 0.1 µM, first compound 1 µM
[19] = second compound 0.1 µM, first compound 3.16 µM
[20] = second compound 0.1 µM, first compound 10 µM
[21] = second compound 0.316 µM, first compound 0.316 µM
[22] = second compound 0.316 µM, first compound 1 µM
[23] = second compound 0.316 µM, first compound 3.16 µM
[24] = second compound 0.316 µM, first compound 10 µM
[25] = second compound 1 µM, first compound 0.316 µM
[26] = second compound 1 µM, first compound 1 µM
[27] = second compound 1 µM, first compound 3.16 µM
[28] = second compound 1 µM, first compound 10 µM
[29] = second compound 3.16 µM, first compound 0.316 µM
[30] = second compound 3.16 µM, first compound 1 µM
[31] = second compound 3.16 µM, first compound 3.16 µM
[32] = second compound 3.16 µM, first compound 10 µM
[33] = second compound 10 µM, first compound 0.316 µM
[34] = second compound 10 µM, first compound 1 µM
[35] = second compound 10 µM, first compound 3.16 µM
[36] = second compound 10 µM, first compound 10 µM

## CC(C)n1nc(-c2ccc3oc(N)nc3c2)c2c(N)ncnc21 + Cc1nc(NC(=O)N2CCCC2C(N)=O)sc1-c1ccnc(C(C)(C)C(F)(F)F)c1
Second compound 0.0316 µM
  IC50: 42.2 nM
Second compound 0.1 µM
  IC50: 25.3 nM
Second compound 0.316 µM
  IC50: 10.9 nM
Second compound 1 µM
  IC50: 6.29 nM
Second compound 3.16 µM
  IC50: 4.81 nM
Second compound 10 µM
  IC50: 3.17 nM
Second compound 0.0316 µM, first compound 0.000316 µM
  viability, T/C: 94%
Second compound 0.0316 µM, first compound 0.001 µM
  viability, T/C: 85.8%
Second compound 0.0316 µM, first compound 0.00316 µM
  viability, T/C: 80.9%
Second compound 0.0316 µM, first compound 0.01 µM
  viability, T/C: 69.3%
[1]
  viability, T/C: 55.3%
[2]
  viability, T/C: 35.2%
Second compound 0.1 µM, first compound 0.000316 µM
  viability, T/C: 85.7%
Second compound 0.1 µM, first compound 0.001 µM
  viability, T/C: 85.7%
Second compound 0.1 µM, first compound 0.00316 µM
  viability, T/C: 71.2%
Second compound 0.1 µM, first compound 0.01 µM
  viability, T/C: 65.2%
[3]
  viability, T/C: 45.9%
[4]
  viability, T/C: 31.3%
Second compound 0.316 µM, first compound 0.000316 µM
  viability, T/C: 73%
Second compound 0.316 µM, first compound 0.001 µM
  viability, T/C: 72%
Second compound 0.316 µM, first compound 0.00316 µM
  viability, T/C: 60.2%
Second compound 0.316 µM, first compound 0.01 µM
  viability, T/C: 50.6%
[5]
  viability, T/C: 39.6%
[6]
  viability, T/C: 27.7%
Second compound 1 µM, first compound 0.000316 µM
  viability, T/C: 68.3%
Second compound 1 µM, first compound 0.001 µM
  viability, T/C: 58%
Second compound 1 µM, first compound 0.00316 µM
  viability, T/C: 55.5%
Second compound 1 µM, first compound 0.01 µM
  viability, T/C: 49.1%
[7]
  viability, T/C: 35%
[8]
  viability, T/C: 23.6%
Second compound 3.16 µM, first compound 0.000316 µM
  viability, T/C: 66.4%
Second compound 3.16 µM, first compound 0.001 µM
  viability, T/C: 63.2%
Second compound 3.16 µM, first compound 0.00316 µM
  viability, T/C: 54.1%
Second compound 3.16 µM, first compound 0.01 µM
  viability, T/C: 41.4%
[9]
  viability, T/C: 34.8%
[10]
  viability, T/C: 25.3%
Second compound 10 µM, first compound 0.000316 µM
  viability, T/C: 62.3%
Second compound 10 µM, first compound 0.001 µM
  viability, T/C: 56%
Second compound 10 µM, first compound 0.00316 µM
  viability, T/C: 50.4%
Second compound 10 µM, first compound 0.01 µM
  viability, T/C: 43.9%
[11]
  viability, T/C: 33.8%
[12]
  viability, T/C: 28.5%

## CC1(C)CCC(CN2CCN(c3ccc(C(=O)NS(=O)(=O)c4ccc(NCC5CCOCC5)c([N+](=O)[O-])c4)c(Oc4cnc5[nH]ccc5c4)c3)CC2)=C(c2ccc(Cl)cc2)C1 + Cc1nc(NC(=O)N2CCCC2C(N)=O)sc1-c1ccnc(C(C)(C)C(F)(F)F)c1
Second compound 0.0316 µM
  IC50: 6180 nM
Second compound 0.1 µM
  IC50: 5980 nM
Second compound 0.316 µM
  IC50: 5800 nM
Second compound 1 µM
  IC50: 4920 nM
Second compound 3.16 µM
  IC50: 4360 nM
Second compound 10 µM
  IC50: 4290 nM
[1]
  viability, T/C: 93.7%
[2]
  viability, T/C: 101%
[13]
  viability, T/C: 96%
[14]
  viability, T/C: 101%
[15]
  viability, T/C: 107%
[16]
  viability, T/C: 14.4%
[3]
  viability, T/C: 89.2%
[4]
  viability, T/C: 90.3%
[17]
  viability, T/C: 87.7%
[18]
  viability, T/C: 90.8%
[19]
  viability, T/C: 97%
[20]
  viability, T/C: 16.8%
[5]
  viability, T/C: 77.9%
[6]
  viability, T/C: 79.6%
[21]
  viability, T/C: 79.2%
[22]
  viability, T/C: 79.6%
[23]
  viability, T/C: 83.5%
[24]
  viability, T/C: 22.9%
[7]
  viability, T/C: 72.5%
[8]
  viability, T/C: 73.4%
[25]
  viability, T/C: 71.7%
[26]
  viability, T/C: 73.4%
[27]
  viability, T/C: 74%
[28]
  viability, T/C: 13.1%
[9]
  viability, T/C: 69.8%
[10]
  viability, T/C: 65.9%
[29]
  viability, T/C: 67.7%
[30]
  viability, T/C: 72.7%
[31]
  viability, T/C: 66%
[32]
  viability, T/C: 8.11%
[11]
  viability, T/C: 65.8%
[12]
  viability, T/C: 67.4%
[33]
  viability, T/C: 58.5%
[34]
  viability, T/C: 63.1%
[35]
  viability, T/C: 62%
[36]
  viability, T/C: 16.7%

## C[C@@H](NC(=O)c1ncnc(N)c1Cl)c1ncc(C(=O)Nc2cc(C(F)(F)F)c(Cl)cn2)s1 + Cc1nc(NC(=O)N2CCCC2C(N)=O)sc1-c1ccnc(C(C)(C)C(F)(F)F)c1
Second compound 0.0316 µM
  IC50: > 10000 nM
Second compound 0.1 µM
  IC50: 3770 nM
Second compound 0.316 µM
  IC50: 860 nM
Second compound 1 µM
  IC50: 352 nM
Second compound 3.16 µM
  IC50: 94.7 nM
Second compound 10 µM
  IC50: < 31.6 nM
[1]
  viability, T/C: 112%
[2]
  viability, T/C: 77.8%
[13]
  viability, T/C: 75%
[14]
  viability, T/C: 72.1%
[15]
  viability, T/C: 61.3%
[16]
  viability, T/C: 44.9%
[3]
  viability, T/C: 99.4%
[4]
  viability, T/C: 77.2%
[17]
  viability, T/C: 61.8%
[18]
  viability, T/C: 67.7%
[19]
  viability, T/C: 53.6%
[20]
  viability, T/C: 41.3%
[5]
  viability, T/C: 81%
[6]
  viability, T/C: 63.7%
[21]
  viability, T/C: 53.9%
[22]
  viability, T/C: 50.2%
[23]
  viability, T/C: 49.9%
[24]
  viability, T/C: 37.1%
[7]
  viability, T/C: 74.8%
[8]
  viability, T/C: 61%
[25]
  viability, T/C: 47.1%
[26]
  viability, T/C: 44.8%
[27]
  viability, T/C: 38.8%
[28]
  viability, T/C: 29.2%
[9]
  viability, T/C: 60.2%
[10]
  viability, T/C: 48.7%
[29]
  viability, T/C: 40.6%
[30]
  viability, T/C: 37.7%
[31]
  viability, T/C: 35.7%
[32]
  viability, T/C: 27.4%
[11]
  viability, T/C: 42.3%
[12]
  viability, T/C: 37.2%
[33]
  viability, T/C: 32.3%
[34]
  viability, T/C: 30.9%
[35]
  viability, T/C: 24.6%
[36]
  viability, T/C: 14.9%
